“Also recorded” adds a separate entry of the source. Like-named read-outs stand apart in the source and are kept apart here.
Columns and labels:
human CRTH2 = biological target: T1, human CRTH2 (Homo sapiens, UniProt Q9Y5Y4); test: Human CRTH2 binding assay (3H-PGD2, 293(124) cells)
T1 construct: Full-length human CRTH2 cDNA was generated by polymerase chain reaction (PCR); expressed in transfected cells; host or cells: 293 cells stably transfected with pHLT124 (pCDNA3.1(+)), named 293(124)
T1 sequence (Q9Y5Y4 1-395): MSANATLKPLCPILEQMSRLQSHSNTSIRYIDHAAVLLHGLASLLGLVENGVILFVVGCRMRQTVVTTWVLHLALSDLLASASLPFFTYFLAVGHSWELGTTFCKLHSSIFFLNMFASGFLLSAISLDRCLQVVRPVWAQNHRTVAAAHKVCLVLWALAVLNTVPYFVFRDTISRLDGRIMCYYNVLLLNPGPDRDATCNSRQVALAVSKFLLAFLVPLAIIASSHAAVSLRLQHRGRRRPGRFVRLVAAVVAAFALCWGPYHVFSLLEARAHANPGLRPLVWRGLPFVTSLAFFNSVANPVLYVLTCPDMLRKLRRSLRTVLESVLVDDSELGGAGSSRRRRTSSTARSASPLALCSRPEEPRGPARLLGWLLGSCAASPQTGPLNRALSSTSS
Experimental: Full-length human CRTH2 cDNA was generated by polymerase chain reaction (PCR) using human genomic DNA as template and subsequently cloned into pCDNA3.1(+) (Invitrogen), generating a CRTH2 expression plasmid pHLT124. The plasmid was transfected into 293 cells, […], using LipofectAMINE™ reagents (Gibco/BRL). G418 ([…]) was added to the culture 48 h after transfection and cells were maintained under selection for 3 weeks to ensure that all surviving cells stably expressed CRTH2. These cells are labeled as 293(124) hereafter.
^3H-PGD2 binding assay was performed using 293(124) cells. […] Each assay contained 25,000 cells, appropriate amount of test compound when necessary and a mixture of 1 nM ^3H-PGD2 (Amersham Pharmacia Biotech) and 30 nM of unlabeled PGD2 (Cayman Chemicals) in […] final volume. The cell mixture was incubated at room temperature for 2.5 h with shaking and the cells were separated from free ^3H-PGD2 and transferred onto a filter plate using a cell harvester. Radioactivity bound to the cells was measured on a liquid scintillation counter. Nonspecific binding was determined in the presence of […] of unlabeled PGD2.

DP = biological target: T2, DP (Homo sapiens, UniProt Q13258); test: DP activity (IC50); format: binding
T2 sequence (Q13258 1-359): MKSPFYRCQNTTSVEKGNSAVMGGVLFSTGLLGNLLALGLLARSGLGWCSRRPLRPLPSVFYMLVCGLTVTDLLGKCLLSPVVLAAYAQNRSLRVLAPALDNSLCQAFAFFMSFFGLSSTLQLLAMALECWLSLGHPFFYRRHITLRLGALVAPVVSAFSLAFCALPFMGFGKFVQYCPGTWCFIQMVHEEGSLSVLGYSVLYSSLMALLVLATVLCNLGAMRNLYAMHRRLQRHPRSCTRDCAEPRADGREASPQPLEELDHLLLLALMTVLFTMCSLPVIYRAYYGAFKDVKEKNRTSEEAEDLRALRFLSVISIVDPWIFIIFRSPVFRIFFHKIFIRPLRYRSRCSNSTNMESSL

[1] = In vitro covalent binding to protein, rat liver microsomes; format: in vitro ADME; settings: in the presence of NADPH cofactor
Experimental: (§1) The propensity of AMG 009 metabolism to generate reactive metabolites was conducted in studies to evaluate in vitro covalent binding to protein by standardized methods (Day, et al., J. Pharmacol. Toxicol. Methods., 52, 278-285 (2005)).

[2] = In vitro covalent binding to protein, human liver microsomes; format: in vitro ADME; settings: in the presence of NADPH cofactor
Experimental: as §1

[3] = system: antigen-induced airway response; test: Sheep airway response model of asthma; format: in vivo
Source text: (§2) The sheep and guinea pig models employed herein are disclosed in publications such as Abraham, W. M., Sheep Models of Allergic Bronchoconstriction)(in Allergy and Allergic Disease 2:1045 1977); Isenberg-Feig, H et al., Animal Models of Allergic Asthma (in Current Allergy and Asthma Reports 2003, 3:70-78); Abraham, W. M., et al. Am J Respir Crit. Care Med vol. 159. pp. 1205-1214, 1999; Abraham, W. M. et al, Am J Respir Crit. Care Med vol. 169. pp. 97-104, 2004; and Jones, T. R. et al Can. J. Physiol. Pharmacol. 73: 191-201 1995.

[4] = system: PGD2-induced airway constriction; test: Guinea pig model of airway constriction; format: in vivo; settings: animals pretreated with aerosolized PGD2 at doses as high as 0.625 mg/mL, FIG. 5
Source text: as §2, with “FIGS. 6A and 6B are graphs comparing the efficacy of AMG 009 (FIG. 6A) and Example Compound 14 (FIG. 6A) in the Guinea Pig Model of airway constriction. The” for “The”

[5] = Hygroscopicity of polymorph; format: physicochemical
[6] = buffer, read-out: CRTH2 IC50 (nM) Buffer
[7] = plasma, read-out: CRTH2 IC50 (nM) Plasma
[8] = buffer, read-out: DP IC50 (nM) Buffer
[9] = plasma, read-out: DP IC50 (nM) Plasma
[10] = whole blood, read-out: CRTH2 IC50 (nM) whole blood
[11] = whole blood, read-out: DP IC50 (nM) whole blood

Structure (SMILES) | IC50 (human CRTH2; [6]) | IC50 (human CRTH2; [7]) | IC50 (DP; [8]) | IC50 (DP; [9]) | further results
CC(C)(C)NC(=O)c1ccc(Oc2cc(F)c(CC(=O)O)cc2Cl)c(NS(=O)(=O)c2ccc(OC(F)(F)C(F)F)cc2Cl)c1 | 4.6 nM | 10.9 nM | 5.9 nM | 52.5 nM | –
Cc1ccc(S(=O)(=O)Nc2cc(C(=O)NC(C)(C)C)ccc2Oc2cc(F)c(CC(=O)O)cc2Cl)c(Cl)c1 | 3.3 nM | 6.1 nM | 5.6 nM | 17.2 nM | –
CC(C)(C)NC(=O)c1ccc(Oc2cc(F)c(CC(=O)O)cc2Cl)c(NS(=O)(=O)c2ccc(C(F)(F)F)cc2Cl)c1 | 3.5 nM | 8.1 nM | 12.6 nM | 43 nM | IC50 (human CRTH2; [10]): 1.1 nM; IC50 (DP; [11]): 26.6 nM
CC1(NC(=O)c2ccc(Oc3cc(F)c(CC(=O)O)cc3Cl)c(NS(=O)(=O)c3ccc(C4CC4)cc3Cl)c2)CCC1 | 3.9 nM | 7.6 nM | 4.4 nM | 25.7 nM | –
O=C(O)Cc1cc(Cl)c(Oc2ccc(C(=O)NC3CCC3)cc2NS(=O)(=O)c2ccc(C3CC3)cc2Cl)cc1F | 3.3 nM | 7.9 nM | 4.6 nM | 18 nM | IC50 (human CRTH2; [10]): 0.5 nM; IC50 (DP; [11]): 0.6 nM
CC(C)(C)NC(=O)c1ccc(Oc2cc(F)c(CC(=O)O)cc2Cl)c(NS(=O)(=O)c2ccc(OC(F)(F)F)cc2Cl)c1 | 9.3 nM | 19.4 nM | 14.5 nM | 37.8 nM | IC50 (human CRTH2; [10]): 2 nM; IC50 (DP; [11]): 17.3 nM
CC1(NC(=O)c2ccc(Oc3cc(F)c(CC(=O)O)cc3Cl)c(NS(=O)(=O)c3ccc(C(F)(F)F)cc3Cl)c2)CCC1 | 8.1 nM | 18.4 nM | 15.1 nM | 41.9 nM | –
CC(C)(C)NC(=O)c1ccc(Oc2cc(F)c(CC(=O)O)cc2F)c(NS(=O)(=O)c2ccc(C3CC3)cc2Cl)c1 | 3 nM | 10 nM | 5 nM | 39 nM | –
CC1(NC(=O)c2ccc(Oc3cc(F)c(CC(=O)O)cc3Cl)c(NS(=O)(=O)c3ccc(OC(F)(F)F)cc3Cl)c2)CCC1 | 6.2 nM | 15.7 nM | 10.7 nM | 31.9 nM | –
Cc1ccc(S(=O)(=O)Nc2cc(C(=O)NC3(C)CCC3)ccc2Oc2cc(F)c(CC(=O)O)cc2Cl)c(Cl)c1 | 3.2 nM | 12.1 nM | 2.8 nM | 25.6 nM | –
CCC(C)(C)NC(=O)c1ccc(Oc2cc(F)c(CC(=O)O)cc2Cl)c(NS(=O)(=O)c2ccc(C(F)(F)F)cc2Cl)c1 | 10 nM | 35.8 nM | 15.6 nM | 51.6 nM | –
CCC(C)(C)NC(=O)c1ccc(Oc2cc(F)c(CC(=O)O)cc2Cl)c(NS(=O)(=O)c2ccc(C)cc2Cl)c1 | 4.9 nM | 10.9 nM | 3.9 nM | 21.8 nM | IC50 (DP; [11]): 18.3 nM
Cc1ccc(S(=O)(=O)Nc2cc(C(=O)NC3CCC3)ccc2Oc2cc(F)c(CC(=O)O)cc2Cl)c(Cl)c1 | 1.3 nM | 7 nM | 2.2 nM | 22.9 nM | –
CC(C)(C)NC(=O)c1ccc(Oc2cc(F)c(CC(=O)O)cc2Cl)c(NS(=O)(=O)c2ccc(Cl)cc2Cl)c1 | 5 nM | 13 nM | 18 nM | 79 nM | –
CCCCNC(=O)c1ccc(Oc2ccc(CC(=O)O)cc2OC)c(NS(=O)(=O)c2ccc(Cl)cc2Cl)c1 [AMG 009] | – | – | – | – | covalent binding of radioactive equivalents to protein [1]: ~50 pmol equivalent/mg protein; covalent binding of radioactive equivalents to protein [2]: ~50 pmol equivalent/mg protein; antigen-induced late airway response ([3]; 7.5 mg/kg (multi-dose), FIG. 3A): inhibits; antigen-induced development of airway hyperreactivity to carbochol ([3]; 7.5 mg/kg (multi-dose), FIG. 3B): inhibits; antigen-induced late airway response ([3]; 7.5 mg/kg (single dose), FIG. 1A): inhibits; antigen-induced development of airway hyperreactivity to carbochol ([3]; 7.5 mg/kg (single dose), FIG. 1B): inhibits; antigen-induced late airway response ([3]; 15 mg/kg (single dose), FIG. 2A): inhibits; antigen-induced development of airway hyperreactivity to carbochol ([3]; 15 mg/kg (single dose), FIG. 2B): inhibits; allergen-induced recruitment of inflammatory cells to the lung (BAL) ([3]; sheep airway response model): blocked; also recorded: effective in blocking; antigen-induced development of airway hyper-reactivity (AHR) to carbachol ([3]; sheep airway response model): blocks; antigen-induced late airway response (LAR) ([3]; sheep airway response model): inhibits
CC(C)(C)NC(=O)c1ccc(Oc2cc(F)c(CC(=O)O)cc2Cl)c(NS(=O)(=O)c2ccc(C3CC3)cc2Cl)c1 [Example Compound 14, 2-(4-(4-(tert-butylcarbamoyl)-2-(2-chloro-4-cyclopropylphenylsulfonamido)phenoxy)-5-chloro-2-fluorophenyl)acetic acid] | – | – | – | – | response in Guinea Pig Model [4]: dose-dependent response
CC(C)(C)NC(=O)c1ccc(Oc2cc(F)c(CC(=O)O)cc2Cl)c(NS(=O)(=O)c2ccc(C3CC3)cc2Cl)c1 [Form II, 2-(4-(4-(tert-butylcarbamoyl)-2-(2-chloro-4-cyclopropylphenylsulfonamido)phenoxy)-5-chloro-2-fluorophenyl)acetic acid] | – | – | – | – | hygroscopicity [5]: non hygroscopic
CC(C)(C)NC(=O)c1ccc(Oc2cc(F)c(CC(=O)O)cc2Cl)c(NS(=O)(=O)c2ccc(C3CC3)cc2Cl)c1 [drawing 69] | 3 nM | 8 nM | 3 nM | 26 nM | IC50 (human CRTH2; [10]): 0.2 nM; IC50 (DP; [11]): 1 nM
CCNC(=O)c1ccc(Oc2ccc(CC(=O)O)cc2Cl)c(NS(=O)(=O)c2ccc(Cl)cc2Cl)c1 [reference compound] | 2.2 nM | 71 nM | 12 nM | – | –
CCNC(=O)c1ccc(Oc2ccc(CC(=O)O)cc2Cl)c(NS(=O)(=O)c2ccc(OC)cc2)c1 [reference compound] | 2.7 nM | 16.7 nM | – | – | –
CCNC(=O)c1ccc(Oc2ccc(CC(=O)O)cc2Cl)c(NS(=O)(=O)c2ccc(C)cc2)c1 [reference compound] | 2.3 nM | 26 nM | – | – | –
CCNC(=O)c1ccc(Oc2ccc(CC(=O)O)cc2)c(NS(=O)(=O)c2ccc(Cl)cc2Cl)c1 [reference compound] | 4 nM | 92 nM | 120 nM | 8420 nM | –
CCCCNC(=O)c1ccc(Oc2ccc(CC(=O)O)cc2Cl)c(NS(=O)(=O)c2ccc(Cl)cc2)c1 [reference compound] | – | – | 9.1 nM | 100 nM | –
CCNC(=O)c1ccc(Oc2cc(Br)c(CC(=O)O)cc2OC)c(NS(=O)(=O)c2ccc(F)cc2F)c1 [reference compound] | 1.6 nM | 25.7 nM | > 1e+06 nM | – | –

— patent US8183293B2, “Phenyl acetic acid derivatives” (Amgen Inc., priority 2007, dated 2012)
